# Where “and” joins values, the source holds several entries; their conditions need not be identical. Equal values may be shown once.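 Briefly, cells in 96-well plates were exposed to five compound concentrations for 48 h, and endpoints were estimated by linear interpolation. GI50 is the concentration that inhibits growth by half. TGI denotes the concentration required for complete inhibition of growth.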
# Experiments:
# Test in all cases: inhibition of tumour cell growth, NCI panel, 48 h
# BT-549 breast = system: BT-549 breast
# SW-620 colon = system: SW-620 colon
# IGROV1 ovarian = system: IGROV1 ovarian
# SF-295 CNS = system: SF-295 CNS
# 786-0 renal = system: 786-0 renal
# NCI-H460 lung = system: NCI-H460 lung
# SK-OV-3 ovarian = system: SK-OV-3 ovarian
# MDA-MB-435 = system: MDA-MB-435
# SR leukemia = system: SR leukemia
# DU-145 prostate = system: DU-145 prostate
Compound,GI50 (BT-549 breast),TGI (BT-549 breast),GI50 (SW-620 colon),TGI (SW-620 colon),GI50 (IGROV1 ovarian),TGI (IGROV1 ovarian),GI50 (SF-295 CNS),TGI (SF-295 CNS),GI50 (786-0 renal),TGI (786-0 renal),GI50 (NCI-H460 lung),TGI (NCI-H460 lung),GI50 (SK-OV-3 ovarian),TGI (SK-OV-3 ovarian),GI50 (MDA-MB-435),TGI (MDA-MB-435),GI50 (SR leukemia),TGI (SR leukemia),GI50 (DU-145 prostate),TGI (DU-145 prostate)
CCN1CCN(c2nc(NNC(=O)Cc3ccccc3)nc(N3CCN(C(c4ccccc4)c4ccccc4)CC3)n2)CC1,1.67 µM,3.61 µM,1.87 µM,3.69 µM,2.03 µM,5.02 µM,2.01 µM,3.99 µM,1.74 µM,3.14 µM,1.89 µM,3.63 µM,2.09 µM,4.48 µM,1.75 µM,3.2 µM,1.92 µM,5.31 µM,2.73 µM,7.2 µM
C/C(=C\c1ccc(Cl)cc1)C(C)(C)C(=O)O,–,> 100 µM,–,> 100 µM,–,> 100 µM,–,> 100 µM,–,> 100 µM,–,> 100 µM,–,> 100 µM,–,> 100 µM,–,> 100 µM,–,> 100 µM
O=C(/C=C/c1ccc(C(F)(F)F)cc1)c1ccc(Nc2nc(NCCO)nc(NCCO)n2)cc1,2.53 µM,8 µM,1.97 µM,4.25 µM,3 µM,9.51 µM,3.2 µM,13 µM,3.12 µM,10.9 µM,3.23 µM,10.6 µM,4 µM,15.1 µM,3.82 µM,14.2 µM,2.3 µM,7.11 µM,4.03 µM,14.3 µM
COc1ccc(-c2oc(=O)ccc2C#Cc2cc(OC)c(OC)c(OC)c2)cc1O,27 µM,> 100 µM,31.1 µM,> 100 µM,39.9 µM,> 100 µM,12.8 µM,75.4 µM,24.8 µM,> 100 µM,15.7 µM,62.9 µM,30.7 µM,> 100 µM,11.5 µM,81.7 µM,2.75 µM,33.5 µM,38.6 µM,> 100 µM
CC(=O)Oc1ccc(OC(C)=O)c2ccccc12,13.5 µM,26.6 µM,13.8 µM,33.2 µM,3.2 µM,11.5 µM,20.9 µM,> 100 µM,16.6 µM,30.5 µM,29.1 µM,> 100 µM,14.1 µM,27.1 µM,3.86 µM,15 µM,3.19 µM,11.7 µM,15.9 µM,29.6 µM
O=C1c2ccccc2C(=O)c2c1ccc(C(Br)Br)c2[N+](=O)[O-],2.51 µM,8.3 µM,0.488 µM,2.07 µM,1.15 µM,2.87 µM,3.7 µM,15.7 µM,1.85 µM,3.45 µM,1.89 µM,5.09 µM,14.1 µM,27.1 µM,1.76 µM,3.29 µM,0.259 µM,1.75 µM,1.98 µM,4.01 µM
O=C(c1ccccc1Nc1ccnc(C(F)(F)F)c1)N1CCN(c2cccc(Cl)c2)CC1,15.9 µM,37.3 µM,25 µM,> 100 µM,5.53 µM,24 µM,16.5 µM,65.6 µM,23.2 µM,> 84 µM,17.6 µM,44.6 µM,28.3 µM,92.5 µM,16.1 µM,66.7 µM,13.5 µM,> 58.7 µM,28.1 µM,> 100 µM
CC(=O)OCC1OC(OC2C(COC(C)=O)OC(OCCC[S-])C(OC(C)=O)C2OC(C)=O)C(OC(C)=O)C(OC(C)=O)C1OC(C)=O.[Au+].c1ccc(CN2[CH-]N(Cc3ccccc3)C(c3ccccc3)=C2c2ccccc2)cc1 (stereo not given),3.37 µM,14.8 µM,3.68 µM,13.8 µM,3.06 µM,16 µM,2.14 µM,7.3 µM,2.8 µM,8.56 µM,3.45 µM,12.8 µM,3.06 µM,12.6 µM,3.18 µM,13.6 µM,2.61 µM,20.6 µM,4.5 µM,17 µM
CCCS(=O)(=O)Nc1ccc(F)c(C(=O)c2c[nH]c3ncc(-c4ccc(Cl)cc4)cc23)c1F,5.2 µM and > 7.63 µM,19.2 µM and > 10 µM,10 µM and > 8.98 µM,27.3 µM and > 10 µM,3.52 µM and 3.63 µM,14.4 µM and > 10 µM,2.62 µM and 3.17 µM,11.5 µM and > 10 µM,4.13 µM and 5.43 µM,26.2 µM and > 10 µM,3.01 µM and 5 µM,14 µM and > 10 µM,4.19 µM and 3.38 µM,19 µM and > 10 µM,0.107 µM and 0.153 µM,8.86 µM and > 10 µM,2.1 µM and 2.92 µM,13.9 µM and > 10 µM,5.62 µM and 7.49 µM,19.7 µM and > 10 µM
COc1ccc(OC)c(-c2nc3sccn3c2/C=C2/C(=O)Nc3ccc(Cl)cc32)c1,24.2 µM,74.3 µM,31.2 µM,> 100 µM,33.5 µM,> 100 µM,19.4 µM,51.5 µM,44.7 µM,> 100 µM,26 µM,65 µM,13.6 µM,41.5 µM,17.2 µM,44.9 µM,18.5 µM,53.4 µM,41.3 µM,> 100 µM
Cc1ccc2nc3c(C)c(Cl)c(=O)cc-3sc2c1,–,> 100 µM,–,> 100 µM,–,> 100 µM,–,81.3 µM,–,> 100 µM,–,97.4 µM,–,> 100 µM,–,39.7 µM,–,> 31.6 µM,–,> 100 µM
CN(C)C[C@H]1CC[C@@H](CN(C)C)C1=O,–,14.1 µM,–,5.55 µM,–,31.6 µM,–,> 50 µM,–,12.8 µM,–,37.8 µM,–,> 50 µM,–,19.6 µM,–,> 50 µM,–,> 50 µM
COc1ccc(C(=O)c2cc(OC)c(OC)c(OC)c2)cc1OC(C)=O,< 0.0199 µM,> 67.5 µM,< 0.0184 µM,> 100 µM,0.272 µM,> 100 µM,0.0796 µM,> 100 µM,0.672 µM,> 100 µM,0.0379 µM,> 100 µM,0.0817 µM,> 100 µM,< 0.01 µM,0.0102 µM,< 0.01 µM,> 75.2 µM,0.0324 µM,> 100 µM
